From patent US20190336598A1, “METHODS FOR MODULATING INFLAMMASOME ACTIVITY AND INFLAMMATION IN THE LUNG” (UNIVERSITY OF MIAMI, priority 2016, published 2019)
Entries after “also recorded” stand apart in the source; their conditions may differ.

B1: IC 100: humanized monoclonal antibody against ASC; recognizes murine, human and swine ASC (antibody, V domains shown)
VH: QVTLKESGPALVKPTQTLTLTCSFSGFSLSTSGMGVSWIRQPAGKGLEWLAHIYWDDDKRYNPSLKSRLTISKDSSKNQVVLTMTNMDPVDTATYSCARSTPIVANAMDYWGQGTLVTVSS
VL: DIVMTQSPDSLAVSLGERATINCKASQSVDYDGDSYMNWYQQKPGQPPKLLIYAASNLESGIPARFSGSGSGTDFTLTISSLQPEDVATYYCQQSNEDPYTFGQGTKLEIK

Key:
Type in all cases: in vivo, C57-BL6 mice
[1] = test system: inflammasome proteins (caspase-1, ASC, IL-1β, AIM2, HMGB1) in lungs; assay: Immunoblot of inflammasome proteins in lungs after adoptive transfer of EV from TBI mice and treatment; settings: vs untreated positive control animals; Enoxaparin 3 mg/kg, IC 100 5 mg/kg; N=4 per group
[2] = test system: inflammasome proteins (caspase-1, ASC, IL-1β, AIM2, HMGB1) in lungs; assay: as above; settings: vs untreated positive control; Enoxaparin 3 mg/kg or IC 100 5 mg/kg one hour after EV from TBI mice; lungs collected 24 hours after injection; p=<0.0001
Description: Lung and brain tissue samples were snap frozen in liquid nitrogen and stored in −80° C. 2-mm sections of right lower lung and right cortical tissue were homogenized in extraction buffer containing protease and phosphatase inhibitor cocktail (Sigma, St Louis, Mo., USA) and resolved in 4-20% Tris-TGX Criterion precasted gels (Bio-Rad, Hercules, Calif., USA) as described in de Rivero Vaccari et al. 2015 (13) using antibodies to caspase-1 (Novus Biologicals), ASC (Santa Cruz), IL-1 β (Cell Signaling), IL-18 (Abcam) AIM2 (Santa Cruz) and HMGB1 (Millipore). Quantification of band density was performed using Image Lab and all data were normalized to β-actin.
(§1) Serum-derived EV from C57BL-6 TBI and sham mice were injected into naïve C57BL-6 mice through the jugular vein at a dose of 1.0×10^10 particles per gram/body weight^48. Particle count was measured by Nanosight Tracking analysis and samples were diluted accordingly. Prior to surgery animals were anesthetized with ketamine and […]. A 1-2 cm incision was made between the jaw and the clavicle. The jugular vein was elevated and tied, followed by catheter placement. Serum-derived EV were transferred and lung and brain tissues were collected 24 hours after injection for analysis (n=5).
(§2) Serum-derived EV from TBI mice were injected into naïve C57-BL6 mice through a jugular vein injection. One hour later, Enoxaparin (3 mg/kg) (n=4) and Anti-ASC (5 mg/kg) (n=4) were administered to recipient animals. The following groups were used: 1) the naïve group received no treatment, 2) the sham saline group was used as a negative control and underwent jugular vein injection of only saline, 3) the untreated group received EV from TBI mice without any treatment and was used as a positive control, 4) the ENOX group received EV from TBI mice and Enoxaparin, and 5) the Anti-ASC group received EV from TBI mice and Anti-ASC. The order of treatment was randomized. Lung and brain tissues were collected 24 hours after injection for analysis. It should be noted that the anti-ASC antibody used in the treatment experiments was a humanized monoclonal antibody against ASC and recognizes murine, human and swine ASC.

[3] = test system: lungs of animals delivered EV from injured mice (ALI); assay: Histology (H&E) and acute lung injury scoring after adoptive transfer of EV from TBI mice and treatment; settings: Enoxaparin 3 mg/kg or IC 100 5 mg/kg one hour after EV from TBI mice; for neutrophil infiltration into alveolar and interstitial space (H&E stained lung sections, FIG. 9A-D) / septal thickening (H&E stained lung sections, FIG. 9A-D): lungs 24 hours after injection; for ALI score (FIG. 9E): vs untreated group, score 0 (no injury) to 1 (severe injury), p=<0.0001
Description: as §1, §2
Lung tissue sections were stained by a standard hematoxylin and eosin method for histology, morphometry and ALI scoring. Lung sections were scored by a blinded pathologist using the Lung Injury Scoring System from the American Thoracic Society Workshop Report (17). Twenty random high power fields were chosen for scoring. Criteria for ALI scoring was based on number of neutrophils in the alveolar space, interstitial space, hyaline membranes, proteinaceous debris filling the airspaces and alveolar septal thickening. Based on these criteria a score between 0 (no injury) and 1 (severe injury) was given.

Molecule	IL-1β in lungs (FIG. 8D) [1]	AIM2 in lungs (FIG. 8E) [2]	ASC in lungs (FIG. 8C) [2]	Caspase-1 in lungs (FIG. 8B) [2]	HMGB1 in lungs (FIG. 8F) [2]	IL-1β in lungs (FIG. 8D) [2]	neutrophil infiltration into alveolar and interstitial space (H&E stained lung sections, FIG. 9A-D) [3]	septal thickening (H&E stained lung sections, FIG. 9A-D) [3]	ALI score (FIG. 9E) [3]
Enoxaparin	reduced	significantly reduced	significantly reduced	significantly reduced	significantly reduced	significantly reduced	significantly less	no signs	significantly lower; also recorded: significantly decreased
B1	reduced	significantly reduced	significantly reduced	significantly reduced	significantly reduced	significantly reduced	significantly less	no signs	significantly lower; also recorded: significantly decreased
